Holding throughout (type): in vivo
Data set [1] relates to nondiabetic rats. Nature of the data set: Transdermal insulin (Dermulin) vs intraperitoneal insulin injection, blood glucose in rats. Conditions: for Percent of glucose reduction: Group 4: intraperitoneal 12.5 u insulin. How it is done:
All rats weighed 50-80 gms, aged 1 month. Group 1 (control—placebo): 6 rats, Group 2 (Dermulin™, 12.5 u): 5 rats, Group 3 (Dermulin™, 25 u): 5 rats, Group 4 (intraperitoneal injection): 5 rats.
All rats were fasted 2 hrs before experiments. They were lightly anesthesized by ether. Neck skin was dissected and jugular vein was exposed. 0.1 ml of blood was drawn at time 0, 5, 10, 15, 30, 60, 90, 120, 150, 180, 210, 240, 270, 300 minutes for glucose measurement by Abbott's Precision glucose monitor. Hair was shaved from the abdomen. Group 2 and Group3 had 12.5 u and 25 u of Dermulin™ applied to the abdominal skin respectively.
All data were analyzed using SAS system, Version 6.12. in 2 ways: 1) Simultaneous comparison of multiple groups by Dunnett's t test at 5% significance level. 2) Comparison of slopes of the glucose reduction rate by repeated measures analysis of variance method by the “Mixed Procedure” of the SAS system software.

For data set [2], the system named is nondiabetic rats. Nature of the data set: Hypoglycemic efficacy of oral insulin (Musulin) compared to subcutaneous and intraperitoneal injections in rats. Conditions: 1.67 unit every 5 minutes. How it is done:
All rats weighed 50-80 gms, age of the rats was 1 month. Group 1 (control—placebo): 6 rats; Group 2 (Musulin™): 6 rats; Group 3 (Musulin™): 5 rats; Group 4 (Musulin™): 5 rats; Group 5 (intraperitoneal injection): 5 rats; and Group 6 (subcutaneous injection): 5 rats. All rats were fasted 2 hrs before experiments. They were lightly anesthesized by ether. Neck skin was dissected and the jugular vein was exposed. 0.1 ml of blood was drawn at times 0, 5, 10,15, 30, 60, 90, 120, 150, 180, 210, 240, 270, 300 minutes for glucose measurement by Abbott's Precision glucose monitor. In order to ensure the maximal exposure and absorption of Musulin™ in the rats' tiny oral cavities, the rats were fed constant amounts at preset time periods. […] Group 3 received 3.33 units and Group 4 received 6.67 units every 5 minutes.
All data were analysed using SAS system, Version 6.12. in 2 ways: 1) Simultaneous comparison of multiple groups by Dunnett's t test at 5% significance level. 2) Comparison of slopes of the glucose reduction rate by repeated measures analysis of variance method by the “Mixed Procedure” of the SAS system software.

The subject of data set [3] is nondiabetic rats. Nature of the data set: Transdermal insulin (Dermulin) vs subcutaneous insulin injection, blood glucose in rats. The settings on record: for Percent of glucose reduction compared to initial levels: Group 4: subcutaneous 12.5 u insulin. How it is done:
All rats weighed 50-80 gms, aged 1 month. Group 1 (control—placebo): 6 rats, Group 2 (Dermulin™, 12.5 u): 5 rats, Group 3 (Dermulin™, 25 u): 5 rats, Group 4 (subcutaneous injection): 5 rats.
All rats were fasted 2 hrs before experiments. They were lightly anesthesized by ether. Neck skin was dissected and jugular vein was exposed. 0.1 ml of blood was drawn at time 0, 5, 10, 15, 30, 60, 90, 120, 150, 180, 210, 240, 270, 300 minutes for glucose measurement by Abbott's Precision glucose monitor. Hair was shaved from the abdomen. Group 2 and Group 3 had 12.5 u and 25 u of Dermulin™ applied to the abdominal skin respectively.
All data were analyzed using SAS system, Version 6.12. in 2 ways: 1) Simultaneous comparison of multiple groups by Dunnett's t test at 5% significance level. 2) Comparison of slopes of the glucose reduction rate by repeated measures analysis of variance method by the” Mixed Procedure” of the SAS system software.

Where [4] appears, read: Group 4: single intraperitoneal injection of 12.5 u insulin.
The mark [5] stands for this setting: Group 5: intraperitoneal insulin injection.
Where [6] appears, read: Group 4: single subcutaneous injection of 12.5 u insulin.
[7] abbreviates: Group 6: subcutaneous insulin injection.

The source of these data is patent US20020151467A1 (priority 2000, published 2002).

On to “intraperitoneal injection: injection control: insulin given intraperitoneally”, for which the “Percent of glucose reduction” value is on record as 26.1 (s.d. 13.4) Percent in the data set on nondiabetic rats [1] (at 60 minutes), 16.5 (s.d. 13) Percent in the data set with nondiabetic rats [1] (at 120 minutes), 25.8 (s.d. 14.1) Percent in the data set on nondiabetic rats [1] (at 180 minutes) and 27.8 (s.d. 33.6) Percent in the data set with nondiabetic rats [1] (at 300 minutes). Moreover, the “Rate of glucose reduction at the slope” value in the data set on nondiabetic rats [1] (setting [4]) is -0.5 mg/min. Also, the “Statistically significant onset of action” value in the data set with nondiabetic rats [1] (setting [4]) amounted to 5 min; with nondiabetic rats [2] (setting [5]), 10 min. The “Death from hypoglycemia within 300 minutes” value in the data set with nondiabetic rats [2] (setting [5]) is listed as 80%. Besides, the “Rate of glucose reduction at the maximal slope” value in the data set on nondiabetic rats [2] (setting [5]) was -0.54 mg/min. The “time for 50% rats to achieve 50% glucose reductions” value with nondiabetic rats [2] (setting [5]) was found to be 13 min. Besides, the “Percent mean reduction of glucose compared to initial levels” value in the data set on nondiabetic rats [2] (Group 5: intraperitoneal insulin injection, at 60 minutes) is recorded as 30.4 (s.d. 3.8) Percent; in the data set with nondiabetic rats [2] (Group 5: intraperitoneal insulin injection, at 120 minutes), 18.7 (s.d. 15.2) Percent; in the data set with nondiabetic rats [2] (Group 5: intraperitoneal insulin injection, at 300 minutes) it was 0 (s.d. 0) Percent.

“subcutaneous injection: injection control: insulin (Humalog) by subcutaneous injection”: in the data set on nondiabetic rats [3] (setting [6]), the “Rate of glucose reduction at the slope between 30-120 min.” value was -0.5 mg/min. Further, the “Statistically significant onset of action” value in the data set with nondiabetic rats [3] (setting [6]) worked out at 5 min; in the data set with nondiabetic rats [2] (setting [7]) it was 10 min. In addition, the “Percent of glucose reduction compared to initial levels” value in the data set with nondiabetic rats [3] (at 60 minutes) is listed as 28 (s.d. 13.4) Percent; in the data set with nondiabetic rats [3] (at 120 minutes), 21.9 (s.d. 13) Percent; with nondiabetic rats [3] (at 180 minutes), 17.2 (s.d. 14.1) Percent; with nondiabetic rats [3] (at 300 minutes) it was 0%. In addition, the “Death from hypoglycemia within 300 minutes” value with nondiabetic rats [2] (setting [7]) stood at 100%. Further, the “Rate of glucose reduction at the maximal slope” value in the data set with nondiabetic rats [2] (setting [7]) is -0.51 mg/min. Moreover, in the data set on nondiabetic rats [2] (setting [7]), the “time for 50% rats to achieve 50% glucose reductions” value worked out at 15 min. In addition, the “Percent mean reduction of glucose compared to initial levels” value with nondiabetic rats [2] (Group 6: subcutaneous insulin injection, at 60 minutes) is recorded as 39.8 (25.5) Percent; in the data set on nondiabetic rats [2] (Group 6: subcutaneous insulin injection, at 120 minutes), 25.5 (s.d. 31.7) Percent; in the data set on nondiabetic rats [2] (Group 6: subcutaneous insulin injection, at 300 minutes), 41.1%.
